Tests used:
[1] = molecular target: T1, mTOR kinase (Homo sapiens, UniProt P42345); assay: mTOR kinase TR-FRET assay; format: biochemical
T1 construct: purchased Millipore, US
In short: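 TR-FRET with ULight-p70 S6K (Thr 389) peptide (50 nM) and 20 μM ATP in 50 mM HEPES pH 7.5, 1 mM EGTA, 3 mM MnCl2; compound pre-incubated with enzyme before substrate addition, reaction at rt, EDTA-stopped. Eu anti-phospho antibody read 665/615 nm; IC50 from sigmoidal dose-response fit.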

[2] = tested on: pS6RP in RKO cells; assay: In Cell Western (ICW) assay, pS6RP in RKO cells; format: cell-based; settings: Homo sapiens, 3 h treatment
Procedure: (§1) Cell lines A375, A2058 and RKO obtained from the ATCC as provided above, were grown, and after attaining ˜80% confluency were trypsinized, centrifuged and resuspended in fresh media. The cells were seeded at the specified density (20,000 to 50,000) in a 96-well format black-well clear bottom plate (Corning) and incubated overnight at 37° C. in a 5% CO2 incubator. The next day, compound dilutions of test compounds were prepared in 100% DMSO followed by dilutions in respective media. Treatment of test compounds was performed for 3 h at 37° C. in 5% CO2 incubator. Following 3 h drug treatment, the conditional media was discarded and the cells were washed once with cPBS (PBS containing 0.1% magnesium chloride hexahydrate and 0.1% anhydrous calcium chloride) and fixed with 4% paraformaldehyde in cPBS for 1 h at rt. After fixing, the cells were given three washes using cPBST (cPBS containing 0.1% Triton™ X-100 reagent) and then blocked using blocking solution (5% skimmed milk powder or 5% BSA prepared in cPBST) for 2 h at rt with shaking at 300 rpm. The cells were again washed thrice with cPBST and incubated with primary antibody phospho-p44/42 MAPK(Erk1/2)(Thr202/204) antibody (Cell Signaling, Catalog # 9101L), phospho S6 ribosomal protein (Cell Signaling, Catalog #4858L), phospho AKT (Thr 308) (Cell Signaling, Catalog #9275) or phospho AKT (Ser 473) (Cell Signaling, Catalog #4060L) in specified dilutions (1:500-1:2500), prepared in respective blocking solutions, in a racker overnight at 4° C. The next day, the cells were washed with 1× Delfia® wash buffer (4×1 wash) and incubated with secondary antibody (Delfia®-Eu-N1 labeled anti-rabbit antibody; PerkinElmer, Catalog #AD0105; dilutions: 1:2000 to 1:6000 in Delfia® assay buffer (PerkinElmer, Catalog #1244-111)) for 2 h at rt in the dark at 300 rpm. The cells were then given four washes with 1× Delfia® wash buffer and incubated with Wallac Delfia® Enhancement solution (100 μL; PerkinElmer, Catalog #1244-105) for 20 min at rt in the dark at 300 rpm. The fluorescence emission was then read at 615 nm with an excitation wavelength of 340 nm using a Victor V5 Fluorometer (Perkin Elmer, US). The cells were then washed once with 1×cPBS and incubated with 100 μL of 0.5 mg/mL of Hoechst 33258 dye prepared in cPBS and read at 460 nm with 355 nm excitation, thereby evaluating the correction factor.
(§2) The % inhibition for the test compounds of formula (I) (new chemical entities (NCEs)) was calculated keeping DMSO control as 0% and the IC50 values were determined using sigmoidal dose response curve fit in GraphPad Prism® v5 software.

[3] = tested on: pERK in A375 cells; assay: In Cell Western (ICW) assay, pERK in A375 cells; format: cell-based; settings: Homo sapiens, A-375, 3 h treatment
In short: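 RKO or A375 cells were exposed to compounds for 3 h at 37 °C, then fixed and stained in-cell with antibodies to pERK1/2 (T202/Y204), pS6RP or pAKT T308, followed by a Eu-labelled secondary. Time-resolved fluorescence (340/615 nm) was normalized to Hoechst, and IC50 values were fitted sigmoidally against DMSO as 0% inhibition.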

[4] = tested on: RKO cells; assay: XTT assay for cell viability, RKO cells; format: cell-based; settings: Homo sapiens, 72 h
Procedure: Cell lines (A375 ATCC No. CRL-1619, A2058 ATCC No. CRL-11147 and RKO ATCC No. CRL-2577, American Type Culture Collection (ATCC), Manassas Va.) once attaining ˜80% confluency were trypsinized, centrifuged and resuspended in fresh media. Cells (1000-2000/per well) were seeded in 96-well plate and incubated over-night at 37° C. in a 5% CO2 incubator. Compound dilutions were prepared in 100% DMSO followed by dilutions in the respective media. The cells were treated with NCEs for 72 h at 37° C. in 5% CO2 incubator. After 72 h, freshly prepared XTT (1 mg/ml)/PMS (25 μM) solution was added, incubated for 2 to 3 h at 37° C. and the absorbance was measured at 450 nm using an ELISA plate reader. Keeping DMSO control as 100%, the effect of the compound to inhibit the cell proliferation was calculated and the GI50 values were determined using sigmoidal dose response curve fit in GraphPad Prism® v5 software.

[5] = molecular target: T2, B-RAFV600E (Homo sapiens, UniProt P15056, V600E); assay: B-RAFV600E radiometric assay; format: biochemical; settings: read-out: Kinase assay B-Raf
T2 construct: purchased Millipore, USA 14-557
T2 sequence (P15056 416-766 V600E limits assumed): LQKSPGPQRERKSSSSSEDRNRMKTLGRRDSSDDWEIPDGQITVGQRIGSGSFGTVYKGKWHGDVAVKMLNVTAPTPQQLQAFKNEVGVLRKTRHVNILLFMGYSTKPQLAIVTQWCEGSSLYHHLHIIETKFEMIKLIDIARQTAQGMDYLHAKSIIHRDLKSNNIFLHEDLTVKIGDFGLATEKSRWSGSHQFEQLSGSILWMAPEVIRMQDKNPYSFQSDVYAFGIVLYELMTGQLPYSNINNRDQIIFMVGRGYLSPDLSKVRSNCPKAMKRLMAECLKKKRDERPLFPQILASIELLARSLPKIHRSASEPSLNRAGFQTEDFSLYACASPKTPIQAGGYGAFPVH
In short: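 B-RAFV600E was preincubated 45 min at rt with compound in 1% DMSO. MEK-K97M (0.5 μg), 5 μM final cold ATP and [γ-32P]ATP were then added for 2 h at rt. Phosphorylated MEK was captured on P81 paper and scintillation-counted; IC50 came from a sigmoidal dose-response fit.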

[6] = tested on: A375 cells; assay: XTT assay for cell viability, A375 cells; format: cell-based; settings: Homo sapiens, A-375, 72 h
In short: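 RKO and A375 cells seeded at 1000-2000/well overnight, then exposed to compound for 72 h at 37° C., 5% CO2. XTT (1 mg/ml)/PMS (25 μM) added for 2-3 h; absorbance at 450 nm. Growth relative to DMSO control (100%); GI50 from sigmoidal dose-response fit.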

[7] = tested on: pERK in RKO cells; assay: In Cell Western (ICW) assay, pERK in RKO cells; format: cell-based; settings: Homo sapiens, 3 h treatment
Procedure: as §1, §2

[8] = molecular target: T3, PI3Kα (Homo sapiens, UniProt P42336); assay: PI3 Kinase alpha TR-FRET assay; format: biochemical
T3 construct: made in house; host or cells: SF9 cells
T3 sequence (P42336 whole entry, species assumed): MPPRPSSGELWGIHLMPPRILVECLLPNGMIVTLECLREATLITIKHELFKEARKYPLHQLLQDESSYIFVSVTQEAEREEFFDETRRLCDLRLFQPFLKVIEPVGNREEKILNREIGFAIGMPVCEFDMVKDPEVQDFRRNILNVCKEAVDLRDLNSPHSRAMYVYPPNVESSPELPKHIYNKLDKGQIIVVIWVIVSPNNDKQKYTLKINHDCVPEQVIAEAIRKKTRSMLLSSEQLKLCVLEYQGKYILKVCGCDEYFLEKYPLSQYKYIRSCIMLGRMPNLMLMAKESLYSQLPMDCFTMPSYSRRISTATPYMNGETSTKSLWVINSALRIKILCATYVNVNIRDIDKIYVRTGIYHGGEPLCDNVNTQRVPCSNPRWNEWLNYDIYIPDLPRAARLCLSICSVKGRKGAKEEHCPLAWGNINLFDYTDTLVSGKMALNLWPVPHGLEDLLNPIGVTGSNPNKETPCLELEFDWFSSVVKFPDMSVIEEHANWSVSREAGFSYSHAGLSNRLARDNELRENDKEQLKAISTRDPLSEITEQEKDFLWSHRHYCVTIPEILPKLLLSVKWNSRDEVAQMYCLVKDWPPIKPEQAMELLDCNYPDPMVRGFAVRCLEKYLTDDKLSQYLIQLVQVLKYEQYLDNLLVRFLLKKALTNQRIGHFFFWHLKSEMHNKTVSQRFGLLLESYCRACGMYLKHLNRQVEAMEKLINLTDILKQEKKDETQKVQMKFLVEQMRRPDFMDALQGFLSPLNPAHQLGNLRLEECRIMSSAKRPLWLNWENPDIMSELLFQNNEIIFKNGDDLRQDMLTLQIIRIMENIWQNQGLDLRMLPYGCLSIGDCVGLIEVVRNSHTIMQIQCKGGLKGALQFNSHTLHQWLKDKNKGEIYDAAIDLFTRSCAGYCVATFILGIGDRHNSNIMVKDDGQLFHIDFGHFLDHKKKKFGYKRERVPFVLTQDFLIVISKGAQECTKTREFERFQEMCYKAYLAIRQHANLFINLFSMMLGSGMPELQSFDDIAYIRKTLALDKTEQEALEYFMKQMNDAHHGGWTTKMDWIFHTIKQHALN
T3 sequence (P27986 whole entry partner, species assumed): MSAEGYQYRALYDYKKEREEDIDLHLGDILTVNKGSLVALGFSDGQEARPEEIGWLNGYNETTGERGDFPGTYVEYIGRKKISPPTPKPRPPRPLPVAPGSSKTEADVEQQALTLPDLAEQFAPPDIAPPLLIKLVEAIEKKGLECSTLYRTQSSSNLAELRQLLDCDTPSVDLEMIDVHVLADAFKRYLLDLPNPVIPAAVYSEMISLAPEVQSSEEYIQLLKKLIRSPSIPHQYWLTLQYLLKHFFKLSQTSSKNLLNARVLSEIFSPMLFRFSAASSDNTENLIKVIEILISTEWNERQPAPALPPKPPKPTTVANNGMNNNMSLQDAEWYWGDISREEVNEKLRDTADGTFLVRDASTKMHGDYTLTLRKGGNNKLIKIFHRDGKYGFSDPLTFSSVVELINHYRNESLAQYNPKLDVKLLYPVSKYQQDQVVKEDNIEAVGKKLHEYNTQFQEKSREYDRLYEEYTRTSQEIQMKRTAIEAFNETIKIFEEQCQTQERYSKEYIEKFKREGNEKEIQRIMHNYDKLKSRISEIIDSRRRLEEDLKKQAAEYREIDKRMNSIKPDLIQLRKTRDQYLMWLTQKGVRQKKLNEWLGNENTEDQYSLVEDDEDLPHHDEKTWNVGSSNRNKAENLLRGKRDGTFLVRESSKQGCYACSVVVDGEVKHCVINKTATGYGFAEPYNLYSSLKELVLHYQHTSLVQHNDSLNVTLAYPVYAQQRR
Procedure: Compound inhibition for PI3Kα was determined in a homogeneous TR-FRET assay using a PI3Kα assay kit (Millipore, US, Catalog #33-016). The PI3 kinase catalyzes phosphorylation of […] (PIP2) to phosphatidylinositol 3,4,5-trisphosphate (PIP3) in the presence of ATP and Mg^2+. The PIP3 product is detected by displacement of biotin-PIP3 from an energy transfer complex consisting of Europium labeled anti-GST monoclonal antibody, a GST-tagged pleckstrin homology (PH) domain, biotinylated PIP3 and Streptavidin-Allophycocyanin (APC). Excitation of Europium in the complex results in an energy transfer to the APC and a fluorescence emission at 665 nm.
Compounds tested were dissolved in DMSO and directly distributed into 384-well plates at a volume of 0.5 μL. P110/P85a/PIP2 mixture (14.5 μL) was added to compound wells and incubated for 30 min at rt […]. P110/P85a was expressed in SF9 cells and purified in-house. 5 ng P110/P85a was used in the assay. The kinase reaction was started by the addition of ATP. The assay concentrations of both PIP2 and ATP were 40 μM. The reaction mixture was incubated for 30 min and was terminated by the addition of stop mix and detection mix. Fluorescence was measured at 615 and 665 nm upon excitation at 340 nm in a Victor V5 fluorometer (Perkin Elmer, US). The fluorescence emission ratio at 665 to 615 nm, proportional to the kinase activity, was plotted against the compound concentration to generate dose-response curves and IC50 values were determined.

T1 sequence (P42345 1362-2549 limits assumed): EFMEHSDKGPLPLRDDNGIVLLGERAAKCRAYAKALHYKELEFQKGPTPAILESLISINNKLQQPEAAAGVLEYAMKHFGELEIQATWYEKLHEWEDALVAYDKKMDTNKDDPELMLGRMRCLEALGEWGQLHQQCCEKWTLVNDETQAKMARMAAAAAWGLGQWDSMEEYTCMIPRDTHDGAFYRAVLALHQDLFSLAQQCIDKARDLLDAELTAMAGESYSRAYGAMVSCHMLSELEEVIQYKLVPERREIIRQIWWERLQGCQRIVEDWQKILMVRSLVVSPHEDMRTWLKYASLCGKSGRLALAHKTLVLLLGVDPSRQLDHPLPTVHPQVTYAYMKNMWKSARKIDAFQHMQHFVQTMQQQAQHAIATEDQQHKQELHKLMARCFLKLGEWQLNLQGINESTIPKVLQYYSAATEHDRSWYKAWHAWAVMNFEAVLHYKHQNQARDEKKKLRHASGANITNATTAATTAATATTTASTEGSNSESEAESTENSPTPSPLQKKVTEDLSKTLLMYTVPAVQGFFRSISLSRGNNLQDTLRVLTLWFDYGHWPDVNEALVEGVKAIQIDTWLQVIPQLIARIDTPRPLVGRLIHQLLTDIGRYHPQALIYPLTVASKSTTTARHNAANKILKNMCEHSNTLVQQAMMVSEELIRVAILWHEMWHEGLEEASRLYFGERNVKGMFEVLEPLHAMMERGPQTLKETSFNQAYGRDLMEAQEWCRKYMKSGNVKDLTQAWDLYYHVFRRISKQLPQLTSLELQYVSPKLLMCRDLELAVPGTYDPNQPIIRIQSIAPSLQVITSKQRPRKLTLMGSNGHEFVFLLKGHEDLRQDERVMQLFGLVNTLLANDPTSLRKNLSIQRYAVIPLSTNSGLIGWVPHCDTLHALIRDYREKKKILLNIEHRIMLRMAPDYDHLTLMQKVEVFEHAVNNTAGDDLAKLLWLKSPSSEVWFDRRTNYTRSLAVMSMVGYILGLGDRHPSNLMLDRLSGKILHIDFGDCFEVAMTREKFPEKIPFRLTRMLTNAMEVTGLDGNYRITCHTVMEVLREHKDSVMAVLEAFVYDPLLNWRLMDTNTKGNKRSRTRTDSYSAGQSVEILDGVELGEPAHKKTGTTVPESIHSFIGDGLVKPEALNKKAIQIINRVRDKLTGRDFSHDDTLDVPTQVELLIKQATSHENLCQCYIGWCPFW

| SMILES | IC50 [1] [nM] | IC50 [2] [nM] | IC50 [3] [nM] | IC50 [5] [nM] | IC50 [6] [nM] | IC50 [7] [nM] | IC50 [8] [nM] | IC50 [4] [nM] |
| --- | --- | --- | --- | --- | --- | --- | --- | --- |
| CCOc1cc(-c2cccc(NS(=O)(=O)CCCF)c2F)cc2c(N3CCOC[C@H]3C)nc(-c3cnc(N)nc3)nc12 [Example 137, (R)-N-(3-(2-(2-aminopyrimidin-5-yl)-8-ethoxy-4-(3-methylmorpholino)quinazolin-6-yl)-2-fluorophenyl)-3-fluoropropane-1-sulfonamide] | 100 to 1000 |  | 1 to 100 | 1 to 100 | 100 to 1000 | 1 to 100 |  | 1 to 100 |
| C[C@@H]1COCCN1c1nc(-c2cnc(N)cc2F)nc2ccc(-c3cccc(NS(=O)(=O)CCCF)c3F)nc12 [Example 140, (R)-N-(3-(2-(6-amino-4-fluoropyridin-3-yl)-4-(3-methylmorpholino)pyrido[3,2-d]pyrimidin-6-yl)-2-fluorophenyl)-3-fluoropropane-1-sulfonamide] | 100 to 1000 |  | 100 to 1000 | 1 to 100 | 100 to 1000 | 1 to 100 |  | 100 to 1000 |
| CC(C)Oc1cc(-c2cccc(NS(=O)(=O)CCCF)c2F)cc2c(N3CCOC[C@H]3C)nc(-c3cnc(N)nc3)nc12 [Example 64, (R)-N-(3-(2-(2-aminopyrimidin-5-yl)-8-isopropoxy-4-(3-methylmorpholino)quinazolin-6-yl)-2-fluorophenyl)-3-fluoropropane-1-sulfonamide] | 100 to 1000 | 100 to 1000 | 1 to 100 | 1 to 100 | 1 to 100 |  |  |  |
| CNc1ncc(-c2nc(N3CCOC[C@H]3C)c3cc(-c4cccc(NS(=O)(=O)CCCF)c4F)cc(OC)c3n2)cn1 [Example 136, (R)-3-fluoro-N-(2-fluoro-3-(8-methoxy-2-(2-(methylamino)pyrimidin-5-yl)-4-(3-methylmorpholino)quinazolin-6-yl)phenyl)propane-1-sulfonamide] | 100 to 1000 |  |  | 1 to 100 |  | 1 to 100 |  | 100 to 1000 |
| CNC(=O)Nc1ccc(-c2nc(N3CCOCC3)c3cc(-c4cccc(NS(=O)(=O)c5c(F)cccc5F)c4F)cc(OC)c3n2)cc1 [Example 1, 2,6-Difluoro-N-(2-fluoro-3-(8-methoxy-2-(4-(3-methylureido)phenyl)-4-morpholinoquinazolin-6-yl)phenyl)benzenesulfonamide] | 1 to 100 |  | 100 to 1000 | 1 to 100 | 100 to 1000 | 100 to 1000 |  | 1000 to 10000 |
| Nc1cc(C(F)(F)F)c(-c2nc(N3CCOCC3)c3nc(-c4cccc(NS(=O)(=O)c5cc(F)ccc5F)c4F)ccc3n2)cn1 [Example 104, N-(3-(2-(6-amino-4-(trifluoromethyl)pyridin-3-yl)-4-morpholinopyrido[3,2-d]pyrimidin-6-yl)-2-fluorophenyl)-2,5-difluorobenzenesulfonamide] |  |  | 1 to 100 | 1 to 100 | 1 to 100 | 100 to 1000 | 1 to 100 |  |
| COc1cc(-c2cccc(NS(=O)(=O)CCCF)c2F)cc2c(N3CCOCC3)nc(-c3cnc4[nH]ccc4c3)nc12 [Example 40, 3-fluoro-N-(2-fluoro-3-(8-methoxy-4-morpholino-2-(1H-pyrrolo[2,3-b]pyridin-5-yl)quinazolin-6-yl)phenyl)propane-1-sulfonamide] | 1 to 100 | 100 to 1000 | 1 to 100 | 1 to 100 | 100 to 1000 |  |  |  |

Second part, led by results:

| IC50 [1] [nM] | IC50 [2] [nM] | IC50 [3] [nM] | IC50 [5] [nM] | IC50 [6] [nM] | IC50 [7] [nM] | IC50 [8] [nM] | SMILES | IC50 [4] [nM] |
| --- | --- | --- | --- | --- | --- | --- | --- | --- |
| 1 to 100 | 100 to 1000 | 1 to 100 | 1 to 100 |  |  |  | COCCOc1cc(-c2cccc(NS(=O)(=O)CCCF)c2F)cc2c(N3CCOCC3)nc(-c3cnc(N)nc3)nc12 [Example 68, N-(3-(2-(2-aminopyrimidin-5-yl)-8-(2-methoxyethoxy)-4-morpholinoquinazolin-6-yl)-2-fluorophenyl)-3-fluoropropane-1-sulfonamide] | 100 to 1000 |
| 1 to 100 | 100 to 1000 | 100 to 1000 | 1 to 100 |  |  |  | COCCOc1cc(-c2cccc(NS(=O)(=O)CCCF)c2F)cc2c(N3CCOCC3)nc(-c3ccc(N)nc3)nc12 [Example 67, N-(3-(2-(6-aminopyridin-3-yl)-8-(2-methoxyethoxy)-4-morpholinoquinazolin-6-yl)-2-fluorophenyl)-3-fluoropropane-1-sulfonamide] | 1 to 100 |
| 1 to 100 | 100 to 1000 | 1 to 100 | 1 to 100 | 100 to 1000 |  |  | CCOc1cc(-c2cccc(NS(=O)(=O)CCCF)c2F)cc2c(N3CCOC[C@@H]3C)nc(-c3ccc(N)nc3)nc12 [Example 65, (S)-N-(3-(2-(6-aminopyridin-3-yl)-8-ethoxy-4-(3-methylmorpholino)quinazolin-6-yl)-2-fluorophenyl)-3-fluoropropane-1-sulfonamide] | 100 to 1000 |
